Measured values from publication PMC7451656, “In vitro and in vivo growth inhibitory activities of cryptolepine hydrate against several Babesia species and Theileria equi” (PLoS Neglected Tropical Diseases, 2020).

Legend:
[1] = system: mouse embryonic fibroblast (NIH/3T3) cell line; assay: cells; format: cell-based; conditions: for EC50: cell viability, NIH/3T3, 24 h, CCK-8
Procedure: (§1) Madin–Darby bovine kidney (MDBK) (ECACC), mouse embryonic fibroblast (NIH/3T3 ATCC CRL-1658) and Human foreskin fibroblast (HFF HFF-1 ATCC SCRC-1041) cell lines were recovered from -80°C stock and cultured continuously in our laboratory at 37°C in a humidified incubator with 5% CO2. In 75 cm^2 culture flasks, NIH/3T3 and HFF cell lines were maintained with Dulbecco’s Modified Eagle’s Medium (DMEM; Gibco, Grand Island, NY, USA), while the MDBK cell line was maintained with Minimum Essential Medium Eagle (MEM; Gibco). Ten percent fetal bovine serum, 1% glutamine, and 0.5% penicillin/streptomycin (Gibco) were added to all media and the cells were stained with 4, 6-diamidino-2-phenylindole dihydrochloride (DAPI; Sigma-Aldrich, St. Louis, MO, USA) to ensure that they were free from mycoplasma contamination. Afterward, the cells were washing twice with Dulbecco’s phosphate-buffered saline and TrypLE Express (Gibco) was used for cell detachment from the culture flask. Finally, Neubauer improved C-Chip (NanoEntek Inc., Seoul, Korea) was used for counting the viable cells after staining with 0.4% trypan blue solution.
(§2) The cytotoxicity assay was performed in accordance with the previously described protocol. Briefly, the assay was carried out using 96-well plates at 37 °C in a humidified incubator with 5% CO2, 100 μl of cells at a density of 5 x 10^4 cells/ml was seeded per well and allowed to attach to the plate for 24 h. Ten microliters of twofold drug dilutions was added to each well to a final concentration of 0.781 to 100 μM in triplicate and incubated for another 24 h. Ten μl of Cell Counting Kits-8 (CCK-8; Dojindo, Japan) was added to each well and incubated for another 3 h, and the absorbance was measured at 450 nm using a microplate reader.

[2] = system: human foreskin fibroblast (HFF) cell line; assay: cells; format: cell-based; conditions: for EC50: cell viability, HFF, 24 h, CCK-8
Procedure: as §1, §2

[3] = system: Madin–Darby bovine kidney (MDBK) cell line; assay: cells; format: cell-based; conditions: for EC50: MDBK, 24 h, cell viability, CCK-8
Procedure: as §1, §2

[4] = system: B. bigemina; assay: Growth inhibitory fluorescence assay in vitro, B. bigemina; format: cell-based, Babesia bigemina
Procedure: (§3) Texas strain of B. bovis and Argentina strain of B. bigemina were grown using bovine red blood cells (RBCs, collected from cattle farm of Obihiro University of Agriculture and Veterinary Medicine and stored at 4°C) in medium 199 (M199; Sigma-Aldrich, Tokyo, Japan) supplemented with 40% bovine serum, while RPMI 1640 medium (Sigma-Aldrich, Tokyo, Japan) was used for B. divergens (German strain) cultivation. The United States Department of Agriculture (USDA) strain of T. equi was grown in equine RBCs (collected from horse farm of Obihiro University of Agriculture and Veterinary Medicine and stored at 4°C) in M199 supplemented with 40% equine serum, and hypoxanthine (MP Biomedicals, Santa Ana, CA, USA) at a final concentration of 13.6 μg/ml was used as a vital supplement, while GIT medium was used for B. caballi (USDA strain) cultivation. Sixty μg/ml of streptomycin, 0.15 μg/ml of amphotericin B, and 60 U/ml of penicillin G (Sigma-Aldrich, Tokyo, Japan) were added to all media to prevent fungal and bacterial contamination. All parasite cultures were maintained for a long time in a microaerophilic stationary-phase culture system.
(§4) The inhibition assay was conducted according to the previously described protocol. Briefly, different concentrations of CRY, DA, CF, and AQ were added in triplicate in 96-well plates with 1% parasitemia and 2.5% HCT for B. bovis and B. bigemina and 5% HCT for B. divergens, B. caballi, and T. equi. The plates were incubated in a humidified incubator with 5% CO2, 5% O2, and 90% N2 for 96 h without changing the media. After 96 h, 100 μl of lysis buffer containing 2 × SG1 was directly added to each well and the plates were then wrapped in aluminum foil for protection from direct light and incubated for 6 h at room temperature. Afterward, the fluorescence was measured using a fluorescence spectrophotometer (Fluoroskan Ascent, Thermo Fisher Scientific, USA) at 485 nm excitation and 518 nm emission wavelengths. The relative fluorescence value was set to percentages after subtracting the mean values of the negative control. The experiment was repeated thrice.
(§5) The IC50 values of CRY, DA, CF, and AQ were determined using the nonlinear regression curve fit in GraphPad Prism (GraphPad Software Inc., San Diego, CA, USA). Combination index (CI) values for the drug combination were calculated using CompuSyn software, and the degree of synergism was determined as the weighted average of CI values using a formula [(1 x IC50) + (2 x IC75) + (3 x IC90) + (4 x IC95)]/10 [30]. The differences in parasitemia and hematology profiles in the B. microti–infected mice were analyzed using an independent Student’s t-test and one-way ANOVA test using GraphPad Prism version 5.0 for Windows (GraphPad Software Inc., San Diego, CA, USA). A P-value < 0.05 was considered statistically significant.

[5] = system: T. equi; assay: Growth inhibitory fluorescence assay in vitro, T. equi; format: cell-based, Theileria equi
Procedure: as §3, §4, §5

[6] = system: B. divergens; assay: Growth inhibitory fluorescence assay in vitro, B. divergens; format: cell-based, Babesia divergens
Procedure: as §3, §4, §5

[7] = system: B. caballi; assay: Growth inhibitory fluorescence assay in vitro, B. caballi; format: cell-based, Babesia caballi
Procedure: as §3, §4, §5

[8] = system: B. bovis; assay: Growth inhibitory fluorescence assay in vitro, B. bovis; format: cell-based, Babesia bovis
Procedure: as §3, §4, §5

[9] = system: B. microti small-subunit rRNA (ss-rRNA) gene; assay: Nested PCR detection of B. microti DNA in blood of treated mice; format: in vivo, Babesia microti; conditions: day 49, 25 mg/kg DA
Procedure: (§6) The promising effect of CRY in vitro encouraged us to evaluate its in vivo effects against B. microti in mice. The assay was conducted in accordance with the previously described protocol. In two separate trials, 35 female 8-week-old BALB/c mice, housed under a pathogen-free environment with controlled humidity, temperature (22°C) and a 12 h light/ dark cycle were caged in seven groups, each group consisting of five mice. Six groups were i.p. injected with 0.5 ml of inoculum (1×10^7 B. microti iRBCs), while the seventh group was left uninfected and untreated to act as a negative control. When the average parasitemia in all infected mice reached approximately 1%, the 5-day drug treatment was initiated. The first and second groups were i.p. injected with 25 mg/kg body weight (BW) of DA and 5 mg/kg BW of CRY, respectively. The third group received 20 mg/kg BW of AQ orally, while the fourth and fifth groups were administered a combination of 2.5 mg/kg BW CRY + 12.5 mg/kg BW DA and 2.5 mg/kg BW CRY + 10 mg/kg AQ via a route similar to that of the single-drug treatment, respectively. The sixth group received 5% DMSO in physiological saline i.p. as a positive control. Parasitemia and hematology profiles (RBCs, hemoglobin (HGB), and HCT) were monitored every 2 and 4 days by microscopic examination and hematology analyzer (Celltac α MEK-6450, Nihon Kohden Corporation, Tokyo, Japan), respectively. On day 49, all mice were euthanized using an anesthesia system containing isoflurane and the blood was collected by cardiac puncture for PCR detection of the parasites.
The nested PCR (nPCR) that targeted the B. microti small-subunit rRNA (ss-rRNA) gene was performed in accordance with the previously described protocol and the genomic DNA was extracted from blood samples collected from all mice groups on day 49 post-infection (p.i.) using a QIAamp DNA Blood Mini Kit (Qiagen, Tokyo, Japan). PCR cycling conditions were performed as previously described and the bands with an expected size of 154 bp were considered positive.

[10] = system: B. microti; assay: Chemotherapeutic effect against B. microti in mice (parasitemia); format: in vivo, Babesia microti; conditions: BALB/c mice, 25 mg/kg DA i.p.
Procedure: Rodent B. microti (Munich strain) was recovered from -80°C stock and injected intraperitoneally (i.p.) in two 8-week-old female BALB/c mice purchased from CLEA Japan (Clea Japan, Tokyo, Japan). The mice were euthanized using an anesthesia system containing isoflurane after parasitemia reached approximately 30% and the blood was collected by cardiac puncture to conduct the in vivo studies.
as §6

`CC(C)/N=c1\cc2n(-c3ccc(Cl)cc3)c3ccccc3nc-2cc1Nc1ccc(Cl)cc1` [CF, clofazimine] gave an EC50 ([1]; Mus musculus, NIH3T3) of over 100 µM, an EC50 ([2]; Homo sapiens) of over 100 µM and an EC50 ([3]; Bos taurus) of 34 ± 3.4 µM. For the same compound, the EC50 [3] was 34.7 ± 3.4 µM, the “Selective index HFF” value ([4]; EC50 HFF / IC50 B. bigemina) was “˃ 17.5” and the “Selective index MDBK” value ([4]; EC50 MDBK / IC50 B. bigemina) was 6.1. For the same compound, the “Selective index NIH/3T3” value ([4]; EC50 NIH/3T3 / IC50 B. bigemina) was “˃ 17.5”, the “Selective index HFF” value ([5]; EC50 HFF / IC50 T. equi) was “˃ 34.7” and the “Selective index MDBK” value ([5]; EC50 MDBK / IC50 T. equi) was 12.1. The “Selective index NIH/3T3” value ([5]; EC50 NIH/3T3 / IC50 T. equi) was “˃ 34.7”, the “Selective index HFF” value ([6]; EC50 HFF / IC50 B. divergens) was “˃ 7.2” and the “Selective index MDBK” value ([6]; EC50 MDBK / IC50 B. divergens) was 2.5. The “Selective index NIH/3T3” value ([6]; EC50 NIH/3T3 / IC50 B. divergens) was “˃ 7.2”, the “Selective index HFF” value ([7]; EC50 HFF / IC50 B. caballi) was “˃ 12.6” and the “Selective index MDBK” value ([7]; EC50 MDBK / IC50 B. caballi) was 4.4. The “Selective index NIH/3T3” value ([7]; EC50 NIH/3T3 / IC50 B. caballi) was “˃ 12.6”, the “Selective index HFF” value ([8]; EC50 HFF / IC50 B. bovis) was “˃ 12.1” and the “Selective index MDBK” value ([8]; EC50 MDBK / IC50 B. bovis) was 4.2. For the same compound, the “Selective index NIH/3T3” value ([8]; EC50 NIH/3T3 / IC50 B. bovis) was “˃ 12.1”.
For `CC(=O)NCC(=O)O.CC(=O)NCC(=O)O.N=C(N)c1ccc(N=NNc2ccc(C(=N)N)cc2)cc1` [DA, diminazene aceturate], the “inhibition of cell line at 100 μM” value [1] was “did not show any inhibition”, the EC50 [1] was over 100 µM and the “inhibition of cell line at 100 μM” value [2] was “did not show any inhibition”. For the same compound, the EC50 [2] was over 100 µM, the “inhibition of cell line at 100 μM” value [3] was “did not show any inhibition” and the EC50 [3] was over 100 µM. For the same compound, the “parasite DNA in blood (nPCR)” value [9] was “not detected”, the “day p.i. on which parasitemia was undetectable by microscopy” value [10] was 16 days and the peak parasitemia level ([10]; 5 days, day 10) was 8.5%. It also gave an IC50 ([4]; B. bigemina in vitro culture, fluorescence assay, 96 h) of 0.68 ± 9e-05 µM, an IC50 ([5]; T. equi in vitro culture, fluorescence assay, 96 h) of 0.71 ± 5e-05 µM and an IC50 ([6]; B. divergens in vitro culture, fluorescence assay, 96 h, read-out: IC50) of 0.43 ± 5e-05 µM. It also gave an IC50 ([7]; B. caballi in vitro culture, fluorescence assay, 96 h) of 0.022 ± 2e-07 µM and an IC50 ([8]; B. bovis in vitro culture, fluorescence assay, 96 h) of 0.35 ± 6e-05 µM.
